Seven compounds from ChEMBL document CHEMBL1201862, “PubChem BioAssay data set” (2004) can be followed below.

Test in all cases: DTP human tumour cell line panel, 48 h
Assay [1] deals with 786-0.
Assay [2] deals with ACHN.
Assay [3] concerns BT-549.
The subject of assay [4] is EKVX.
Assay [5] concerns HCT-15.
Assay [6] concerns HT-29.
Assay [7] has as its system Hs-578T.
Assay [8] relates to IGROV-1.
Assay [9] deals with K562.
The subject of assay [10] is LOX IMVI.
In assay [11] the test system is MDA-MB-435.
Assay [12] concerns NCI-H460.
For assay [13], the system named is NCI-H522.
Assay [14] concerns PC-3.
Assay [15] concerns SF-268.
Assay [16] concerns SK-MEL-5.
In assay [17] the test system is T47D.
For assay [18], the system named is UACC-257.
Assay [19] deals with UACC-62.
Assay [20] deals with UO-31.

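A five-concentration, 48-hour dose response in 96-well plates underlies each endpoint, interpolated linearly between surrounding concentrations. At the GI50, growth is halved.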 Activity calls are given as the source filed them. Cut-off read from the data, not from the text of the source: active = GI50 up to about 1.1 µM and inactive = higher. *1 amine or outer side, *2 acyl side, *3 side chain or, on linkers, in order; H or OH if unused. Where a SMILES comes first, the peptide text is derived from it. Bridges are numbered along the chain shown (N, C = ends). [ ]: non-standard residue; d: D form. ξ: configuration not given here. X10 = CCC(C)C(N[*:1])C(O)CC(=O)O[C@H](C(=O)C(C)C(=O)[*:2])C(C)C; NMeY = CN[C@@H](Cc1ccc(O)cc1)C(=O)O; ξNMeL = CNC(CC(C)C)C(=O)O; ξT = CC(O)C(N)C(=O)O

One may read the GI50 as the concentration that inhibits growth by half. `COc1cc2c(/C=C3/C(=O)Nc4ccccc43)c(Cl)[nH]c2cc1C`: the GI50 is 0.0605 µM (active) in assay [1]; 0.0923 µM (active) in assay [2]; 0.0603 µM (active) in assay [3]; 0.0521 µM (active) in [4]; 0.0408 µM in assay [5]; 0.0495 µM (active) in [6]. The concentration for 50% growth inhibition (GI50) is 0.0427 µM (active) in assay [7]; 0.034 µM (active) in [8]; 0.0601 µM (active) in assay [9]; 0.0631 µM (active) in [10]; 0.0141 µM (active) in assay [11]; 0.0716 µM (active) in assay [12]. The GI50 is 0.0446 µM (active) in assay [13]; 0.0435 µM (active) in assay [14]; 0.0644 µM (active) in assay [15]; 0.0467 µM (active) in assay [16]; 13.7 µM (inactive) in [17]; 1.52 µM (inactive) in assay [18]. Also, the GI50 in assay [19] is 0.0371 µM (active); in assay [20] it was 0.0745 µM (active).
As to `CC1=NN(c2cccc(Cl)c2)C2(C1)SCC(=O)N2c1nc2ccccc2s1` (stereo not given), the GI50 in assay [1] is 21.8 µM (inactive); in assay [2], 26.8 µM (inactive); in assay [3] it was 29.3 µM (inactive); in [4], 29.7 µM (inactive); in assay [5], 33.2 µM; in assay [6], 27.1 µM (inactive). In addition, the GI50 in assay [7] was 41.1 µM (inactive); in [8] it was 21.9 µM (inactive); in assay [9] it was 18.2 µM (inactive); in assay [10] it was 20.2 µM (inactive); in assay [11], 25 µM (inactive); in assay [12], 21.6 µM (inactive). For the same compound, the GI50 is 25.9 µM (inactive) in assay [13]; 23.3 µM (inactive) in [14]; 31.2 µM (inactive) in assay [15]; 17.5 µM (inactive) in assay [16]; 19.8 µM (inactive) in assay [17]; 22.4 µM (inactive) in [18]. Also, the GI50 in assay [19] is 29.5 µM (inactive); in assay [20], 21.1 µM (inactive).
In the case of `CCC(C)C1NC(=O)C(NC(=O)C(CC(C)C)N(C)C(=O)[C@@H]2CCCN2)C(C)OC(=O)[C@H](Cc2ccc(OC)cc2)N(C)C(=O)[C@@H]2CCCN2C(=O)[C@H](CC(C)C)NC(=O)C(C)C(=O)[C@H](C(C)C)OC(=O)CC1O` (stereo not given in full) (H-P[ξNMeL][ξT][X10]LP[NMeY](Me); ester 3-C), the concentration for 50% growth inhibition (GI50) in assay [1] was 0.000564 µM (active); in assay [2], 0.00234 µM (active); in assay [3], 0.00156 µM (active); in [4] it was < 0.01 µM (active); in assay [5] it was 0.016 µM; in [6], 0.000195 µM (active). Besides, the GI50 in assay [7] was < 0.01 µM (active); in assay [8], 0.000288 µM (active); in [9], 0.000325 µM (active); in [10], < 0.0001 µM (active); in assay [11], 0.00047 µM (active); in assay [12], 0.000249 µM (active). For the same compound, the concentration for 50% growth inhibition (GI50) in [13] was 0.000366 µM (active); in assay [14], 0.00106 µM (active); in [15], 0.000267 µM (active); in assay [16], < 0.0001 µM (active); in [17], 0.000185 µM (active); in assay [18], 0.000815 µM (active). For the same compound, the GI50 in assay [19] was < 0.0001 µM (active); in assay [20], 0.0214 µM (active).
Take `COc1cc(Oc2nc3c(N)cc(C(F)(F)F)cc3nc2-c2ccccc2)cc(OC)c1OC`: the GI50 in [1] was 3.97 µM (inactive); in assay [2] it was 4.55 µM (inactive); in assay [3], 4.03 µM (inactive); in [4], 13.1 µM (inactive); in assay [5] it was 3.53 µM; in assay [6] it was 1.49 µM (inactive). Further, the GI50 was 3.69 µM (inactive) in assay [7]; 0.916 µM (active) in assay [8]; 1.23 µM (inactive) in [9]; 3.48 µM (inactive) in assay [10]; 0.445 µM (active) in assay [11]; 4.14 µM (inactive) in assay [12]. Besides, the GI50 in assay [13] was 2.08 µM (inactive); in [14] it was 1.92 µM (inactive); in [15] it was 4.66 µM (inactive); in [16] it was 2.77 µM (inactive); in [17], 5.81 µM (inactive); in assay [18] it was 4.09 µM (inactive). In addition, the GI50 in [19] is 1.66 µM (inactive); in assay [20], 11.2 µM (inactive).
Consider `O=CN/C=C/c1cccc(O)c1`, for which the GI50 in assay [1] was 54 µM (inactive); in assay [2], 50 µM (inactive); in assay [3] it was 8.26 µM (inactive); in [4], 69.2 µM (inactive); in assay [5] it was 72.1 µM; in assay [6] it was 50.4 µM (inactive). The GI50 is > 55.2 µM (inactive) in assay [7]; 55 µM (inactive) in assay [8]; > 75.7 µM (inactive) in assay [9]; 48.4 µM (inactive) in assay [10]; 38.2 µM (inactive) in [11]; 43.1 µM (inactive) in assay [12]. Besides, the GI50 in assay [13] is 48.3 µM (inactive); in assay [14], 56.6 µM (inactive); in assay [15], > 57.5 µM (inactive); in [16] it was > 63.1 µM (inactive); in [17], 63.4 µM (inactive); in [18], 63.7 µM (inactive). The GI50 in assay [19] is 46.1 µM (inactive); in assay [20] it was 54.2 µM (inactive).
Turning to `Cc1cc(=O)oc2c(C)c3oc(CBr)c(Br)c3cc12`, the GI50 in [1] is 14.4 µM (inactive); in assay [2] it was 35.6 µM (inactive); in assay [3] it was 29.3 µM (inactive); in assay [4], 92.3 µM (inactive); in [5], 30.1 µM; in assay [6], 39.2 µM (inactive). Further, the GI50 in [7] was 44.1 µM (inactive); in assay [8] it was 17.7 µM (inactive); in [9], 19.6 µM (inactive); in assay [10] it was 12.6 µM (inactive); in [11], 43.3 µM (inactive); in assay [12], 18.9 µM (inactive). Besides, the GI50 in assay [13] is 14.7 µM (inactive); in assay [14] it was 40.4 µM (inactive); in [15] it was 25.6 µM (inactive); in [16] it was 18.2 µM (inactive); in [17] it was 24.2 µM (inactive); in assay [18], 54.5 µM (inactive). Besides, the results for the GI50 in assay [19] and in assay [20] were 17.5 µM (inactive) and 18.6 µM (inactive), respectively.
Regarding `CCN(CCCN(CC)C(=O)Nc1c(C)cccc1C)C(=O)Nc1c(C)cccc1C`, the GI50 was > 100 µM (inactive) in [1]; > 100 µM (inactive) in [2]; > 100 µM (inactive) in assay [3]; > 100 µM (inactive) in assay [4]; over 100 µM in assay [5]; > 100 µM (inactive) in assay [6]. In addition, the GI50 in assay [7], in [8], in assay [9], in [10], in [11] and in assay [12] was > 100 µM (inactive) throughout. For the same compound, the GI50 was > 100 µM (inactive) in [13]; > 100 µM (inactive) in [14]; > 100 µM (inactive) in [15]; > 100 µM (inactive) in assay [16]; 35.4 µM (inactive) in assay [17]; > 100 µM (inactive) in assay [18]. Further, the GI50 in assay [19] was > 100 µM (inactive); in [20] it was 92.3 µM (inactive).
